Results taken from patent publication US7083932B1, “Nucleic acid molecules encoding peptides having pronociceptive properties” (Euroscreen, s.a., priority 1995, dated 2006).
Where a name gives a salt, the structure may show the parent alone. Ends that are not written are not given here.

Legend:
mice [1] = test: hole board test; type: in vivo; settings: 5 mg/kg s.c., tested 15 minutes later; saline 150±8
mice [2] = test: antagonism of nociceptin-induced stimulation of horizontal locomotor activity; type: in vivo
CHO(ORL1−) cells = type: cell-based
ORL1 receptor = ORL1 receptor (Homo sapiens, UniProt P41146); test: cell-based
ORL1 receptor, sequence (P41146 whole entry): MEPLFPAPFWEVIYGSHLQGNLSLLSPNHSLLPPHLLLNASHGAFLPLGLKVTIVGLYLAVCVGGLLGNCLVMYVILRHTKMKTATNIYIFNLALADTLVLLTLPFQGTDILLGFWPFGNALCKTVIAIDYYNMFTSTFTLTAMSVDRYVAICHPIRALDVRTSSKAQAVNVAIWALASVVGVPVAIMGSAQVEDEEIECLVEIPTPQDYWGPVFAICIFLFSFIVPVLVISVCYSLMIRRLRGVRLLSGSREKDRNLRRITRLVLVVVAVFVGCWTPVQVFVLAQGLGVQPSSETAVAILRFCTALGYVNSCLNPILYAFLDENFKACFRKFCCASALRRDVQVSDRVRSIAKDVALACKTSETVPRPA

CN1CC[C@]23c4c5ccc(O)c4O[C@H]2[C@@H](O)C=C[C@H]3[C@H]1C5 [morphin]
Number of explored holes during the 20 minutes period (mice [1]): 24±2

O=C(CCCN1CCC(O)(c2ccc(Cl)cc2)CC1)c1ccc(F)cc1 [haloperidol]
antagonism of nociceptin stimulation of locomotor activity (mice [2]; increasing doses of antagonist): antagonized

C=CCN1CC[C@]23c4c5ccc(O)c4O[C@H]2C(=O)CC[C@@]3(O)[C@H]1C5 [Naloxone, Naloxone hydrochloride]
effect on motor-stimulant effect of 100 ng nociceptin (mice [2]; 0.0–4.5 mg/kg s.c., 10 minutes before i.c.v. nociceptin, first 10 minutes of testing): did not suppress

YGGFTGARKSARKLANQ [^1Tyr analogue]
activity on cyclase in wild type cells (CHO(ORL1−) cells): totally inactive | IC50 (ORL1 receptor): 1 nM | maximal inhibition of forskolin-induced cAMP accumulation (ORL1 receptor): > 90%
